Measurements from patent publication US11247965B2 (VenatoRx Pharmaceuticals, Inc., priority 2017, dated 2022).

Tests used:
[1] = tested on: HBV replication in HepAD38 cells; assay: Anti-HBV activity in HepAD38 cells, extracellular HBV DNA by QPCR; format: cell-based, HBV (genotype D, serotype ayw); conditions: Hepatitis B virus, HePAD38, 168 h, read-out: Anti-HBV EC50, HepAD38 cells, extracellular HBV DNA by QPCR, 7 days of incubation
Procedure, shortened: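 Seven-day compound exposure (30 μM down to 10 nM, half-log steps) after tetracycline withdrawal induced HBV replication in HepAD38 cells. Extracellular viral DNA measured by QPCR (copies/mL via standard curve), normalised to DMSO wells; EC50 from 4-parameter non-linear regression.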

[2] = In vitro cytotoxicity, MTT cell viability assay in HepG2 cells; format: cell-based; conditions: human, Cytotoxicity CC50
Procedure, shortened: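 Using MTT conversion as the viability measure, HepG2 cells were incubated with compounds for 7 days (30 μM to 1.0 nM). Absorbance at 492 nm was normalized to vehicle and fitted to give CC50.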

Compound	EC50 [1] [µM]	CC50 at 7 days [2] [µM]
CC(C)n1cc(NC(=O)c2ccc(F)c(C(F)(F)C(=O)N3[C@@H]4CC[C@H]3C[C@@H](O)C4)c2)cn1 [Example 184, 3-(1,1-difluoro-2-((1R,3r,5S)-3-hydroxy-8-azabicyclo[3.2.1]octan-8-yl)-2-oxoethyl)-4-fluoro-N-(1-isopropyl-1H-pyrazol-4-yl)benzamide]	5 to 30	> 30
CC(C)n1cc(NC(=O)c2ccc(F)c(C(F)(F)C(=O)N3[C@@H]4CC[C@H]3C[C@H](O)C4)c2)cn1 [Example 185, 3-(1,1-difluoro-2-((1R,3s,5S)-3-hydroxy-8-azabicyclo[3.2.1]octan-8-yl)-2-oxoethyl)-4-fluoro-N-(1-isopropyl-1H-pyrazol-4-yl)benzamide]	5 to 30	> 30
CC(C)n1cc(NC(=O)c2ccc(F)c(C(F)(F)C(=O)N3CCC(O)(CO)CC3)c2)cn1 [Example 186, 3-(1,1-difluoro-2-(4-hydroxy-4-(hydroxymethyl)piperidin-1-yl)-2-oxoethyl)-4-fluoro-N-(1-isopropyl-1H-pyrazol-4-yl)benzamide]	5 to 30	> 30
O=C(Nc1cc(F)c(F)c(F)c1)c1ccc(F)c(C(F)(F)C(=O)N2CCC(O)C(F)(F)C2)c1 (stereo not shown) [Example 187, 3-(2-(3,3-difluoro-4-hydroxypiperidin-1-yl)-1,1-difluoro-2-oxoethyl)-4-fluoro-N-(3,4,5-trifluorophenyl)benzamide]	< 5	5 to 30
O=C(Nc1cc(F)c(F)c(F)c1)c1ccc(F)c(C(F)(F)C(=O)N2[C@@H]3CC[C@H]2C[C@H](O)C3)c1 [Example 188, 3-(1,1-difluoro-2-((1R,3s,5S)-3-hydroxy-8-azabicyclo[3.2.1]octan-8-yl)-2-oxoethyl)-4-fluoro-N-(3,4,5-trifluorophenyl)benzamide]	< 5	5 to 30
O=C(Nc1ccc(F)c(Br)c1)c1ccc(F)c(C(F)(F)C(=O)N2[C@@H]3CC[C@H]2C[C@H](O)C3)c1 [Example 189, N-(3-bromo-4-fluorophenyl)-3-(1,1-difluoro-2-((1R,3s,5S)-3-hydroxy-8-azabicyclo[3.2.1]octan-8-yl)-2-oxoethyl)-4-fluorobenzamide]	< 5	5 to 30
O=C(Nc1ccc(F)c(Br)c1)c1ccc(F)c(C(F)(F)C(=O)N2CCC(O)(CO)CC2)c1 [Example 190, N-(3-bromo-4-fluorophenyl)-3-(1,1-difluoro-2-(4-hydroxy-4-(hydroxymethyl)piperidin-1-yl)-2-oxoethyl)-4-fluorobenzamide]	< 5	5 to 30
N#Cc1cc(NC(=O)c2ccc(F)c(C(F)(F)C(=O)N3[C@@H]4CC[C@H]3C[C@H](O)C4)c2)ccc1F [Example 193, N-(3-cyano-4-fluorophenyl)-3-(1,1-difluoro-2-((1R,3s,5S)-3-hydroxy-8-azabicyclo[3.2.1]octan-8-yl)-2-oxoethyl)-4-fluorobenzamide]	< 5	5 to 30
N#Cc1cc(NC(=O)c2ccc(F)c(C(F)(F)C(=O)N3CCC(O)(CO)CC3)c2)ccc1F [Example 194, N-(3-cyano-4-fluorophenyl)-3-(1,1-difluoro-2-(4-hydroxy-4-(hydroxymethyl)piperidin-1-yl)-2-oxoethyl)-4-fluorobenzamide]	< 5	5 to 30
O=C(Nc1ccnc(Cl)c1)c1ccc(F)c(C(F)(F)C(=O)N2CCC(O)C(F)(F)C2)c1 (stereo not shown) [Example 195, N-(2-chloropyridin-4-yl)-3-(2-(3,3-difluoro-4-hydroxypiperidin-1-yl)-1,1-difluoro-2-oxoethyl)-4-fluorobenzamide]	< 5	< 5
O=C(Nc1ccnc(Cl)c1)c1ccc(F)c(C(F)(F)C(=O)N2[C@@H]3CC[C@H]2C[C@@H](O)C3)c1 [Example 196, N-(2-chloropyridin-4-yl)-3-(1,1-difluoro-2-((1R,3r,5S)-3-hydroxy-8-azabicyclo[3.2.1]octan-8-yl)-2-oxoethyl)-4-fluorobenzamide]	< 5	< 5
O=C(Nc1ccnc(Cl)c1)c1ccc(F)c(C(F)(F)C(=O)N2[C@@H]3CC[C@H]2C[C@H](O)C3)c1 [Example 197, N-(2-chloropyridin-4-yl)-3-(1,1-difluoro-2-((1R,3s,5S)-3-hydroxy-8-azabicyclo[3.2.1]octan-8-yl)-2-oxoethyl)-4-fluorobenzamide]	< 5	< 5
O=C(Nc1ccnc(Cl)c1)c1ccc(F)c(C(F)(F)C(=O)N2CCC(O)(CO)CC2)c1 [Example 198, N-(2-chloropyridin-4-yl)-3-(1,1-difluoro-2-(4-hydroxy-4-(hydroxymethyl)piperidin-1-yl)-2-oxoethyl)-4-fluorobenzamide]	< 5	5 to 30
O=C(Nc1ccc(F)c(F)c1)c1ccc(F)c(C(F)(F)C(=O)N2[C@@H]3CC[C@H]2C[C@H](O)C3)c1 [Example 199, 3-(1,1-difluoro-2-((1R,3s,5S)-3-hydroxy-8-azabicyclo[3.2.1]octan-8-yl)-2-oxoethyl)-N-(3,4-difluorophenyl)-4-fluorobenzamide]	< 5	5 to 30
Cc1cc(NC(=O)c2ccc(F)c(C(F)(F)C(=O)N3[C@@H]4CCC[C@H]3CC(=O)C4)c2)ccc1F [Example 200, 3-(1,1-difluoro-2-oxo-2-((1R,5S)-3-oxo-9-azabicyclo[3.3.1]nonan-9-yl)ethyl)-4-fluoro-N-(4-fluoro-3-methylphenyl)benzamide]	< 5	5 to 30
Cc1cc(NC(=O)c2ccc(F)c(C(F)(F)C(=O)N3[C@@H]4COC[C@H]3CC(=O)C4)c2)ccc1F [Example 201, 3-(1,1-difluoro-2-oxo-2-((1R,5S)-7-oxo-3-oxa-9-azabicyclo[3.3.1]nonan-9-yl)ethyl)-4-fluoro-N-(4-fluoro-3-methylphenyl)benzamide]	< 5	5 to 30
Cc1cc(NC(=O)c2ccc(F)c(C(F)(F)C(=O)N3[C@@H]4CCC[C@H]3CC(O)C4)c2)ccc1F (stereo partly drawn) [Example 202, 3-(1,1-difluoro-2-((1R,5S)-3-hydroxy-9-azabicyclo[3.3.1]nonan-9-yl)-2-oxoethyl)-4-fluoro-N-(4-fluoro-3-methylphenyl)benzamide]	< 5	5 to 30
Cc1cc(NC(=O)c2ccc(F)c(C(F)(F)C(=O)N3[C@@H]4COC[C@H]3CC(O)C4)c2)ccc1F (stereo partly drawn) [Example 203, 3-(1,1-difluoro-2-((1R,5S)-7-hydroxy-3-oxa-9-azabicyclo[3.3.1]nonan-9-yl)-2-oxoethyl)-4-fluoro-N-(4-fluoro-3-methylphenyl)benzamide]	< 5	5 to 30
Cc1cc(NC(=O)c2ccc(F)c(C(F)(F)C(=O)N3CCc4[nH]ncc4C3)c2)ccc1F [Example 204, 3-(1,1-difluoro-2-oxo-2-(1,4,6,7-tetrahydro-5H-pyrazolo[4,3-c]pyridin-5-yl)ethyl)-4-fluoro-N-(4-fluoro-3-methylphenyl)benzamide]	< 5	5 to 30
Cc1ccc(C(=O)Nc2cc(F)c(F)c(F)c2)cc1C(F)(F)C(=O)N1[C@@H]2CC[C@H]1C[C@H](O)C2 [Example 205, 3-(1,1-difluoro-2-((1R,3s,5S)-3-hydroxy-8-azabicyclo[3.2.1]octan-8-yl)-2-oxoethyl)-4-methyl-N-(3,4,5-trifluorophenyl)benzamide]	5 to 30	5 to 30
